Key:
[1] = tested on: harmful plants such as Digitaria sanguinalis, Echinochloa crus-galli, Setaria faberi, Setaria viridis, Sorghum halepense, Abutilon theophrasti, Amaranthum …; assay: Post-emergence effect on weeds (greenhouse pot test); type: in vivo, monocotyledonous and dicotyledonous weeds; conditions: application rate of 1 kg and less of active substance per hectare; treated at three-leaf stage; scored visually after about 3 to 4 weeks by comparison with untreated controls
Protocol: Seeds or rhizome pieces of monocotyledonous and dicotyledonous weeds are placed in sandy loam soil in plastic pots, covered with soil and grown in a greenhouse under good growth conditions. Three weeks after sowing, the test plants are treated at the three-leaf stage. The compounds according to the invention which were formulated as wettable powders or emulsion concentrates are sprayed, at various dosages, onto the green parts of the plants at an application rate of 600 to 800 l of water/ha (converted). After the test plants have remained in the greenhouse for about 3 to 4 weeks under optimum growth conditions, the effect of the preparations is scored visually by comparison with untreated controls. The agents according to the invention also have good herbicidal activity post-emergence against a broad spectrum of economically important weed grasses and broad-leafed weeds.

[2] = tested on: weed plants such as Digitaria sanguinalis, Echinochloa crus-galli, Setaria faberi, Setaria viridis, Sorghum halepense, Abutilon theophrasti, Amaranthum …; assay: Pre-emergence effect on weeds (greenhouse pot test); type: in vivo, monocotyledonous and dicotyledonous weed plants; conditions: application rate of 1 kg or less of active substance per hectare; scored visually after 3 to 4 weeks by comparison with untreated controls
Text: Seeds or rhizome pieces of monocotyledonous and dicotyledonous weed plants are placed in sandy loam soil in plastic pots and covered with soil. The compounds according to the invention which are formulated in the form of wettable powders or emulsion concentrates are then applied to the surface of the soil cover in the form of aqueous suspensions or emulsions at an application rate of 600 to 800 l of water/ha (converted), in various dosages.
After the treatment, the pots are placed in a greenhouse and kept under good growth conditions for the weeds. After the test plants have emerged, the damage to the plants or the negative effect on the emergence is scored visually after a test period of 3 to 4 weeks by comparison with untreated controls. As shown by the test results, compounds according to the invention have good herbicidal pre-emergence activity against a broad spectrum of weed grasses and broad-leafed weeds.

Structure (SMILES) | herbicidal activity post-emergence [1] | herbicidal activity pre-emergence [2]
Cc1nc(N)nc(NC2CCN(c3cccc(F)c3)C2=O)n1 (stereo not shown) [Example A1] | very good herbicidal activity | very good herbicidal activity
Cc1nc(N)nc(NC2CCN(c3ccccc3)C2=O)n1 (stereo not shown) [Example A2] | very good herbicidal activity | very good herbicidal activity
Cc1nc(N)nc(NC2CCN(c3cccc(C(F)(F)F)c3)C2=O)n1 (stereo not shown) [Example A3] | very good herbicidal activity | very good herbicidal activity
Cc1cccc(N2CCC(Nc3nc(C)nc(N)n3)C2=O)c1 (stereo not shown) [Example A4] | very good herbicidal activity | very good herbicidal activity
Cc1cc(C)cc(N2CCC(Nc3nc(C)nc(N)n3)C2=O)c1 (stereo not shown) [Example A5] | very good herbicidal activity | very good herbicidal activity
Cc1nc(N)nc(NC2CCN(c3ccc(F)c(C)c3)C2=O)n1 (stereo not shown) [Example A6] | very good herbicidal activity | very good herbicidal activity
COc1cccc(N2CCC(Nc3nc(C)nc(N)n3)C2=O)c1 (stereo not shown) [Example A7] | very good herbicidal activity | very good herbicidal activity
Cc1nc(N)nc(NC2CCN(c3cccc(OC(F)(F)F)c3)C2=O)n1 (stereo not shown) [Example A8] | very good herbicidal activity | very good herbicidal activity
Cc1nc(N)nc(NC2CCN(c3cccc(Cl)c3)C2=O)n1 (stereo not shown) [Example A9] | very good herbicidal activity | very good herbicidal activity
CC(F)c1nc(N)nc(NC2CCN(c3cccc(F)c3)C2=O)n1 (stereo not shown) [Example A10] | very good herbicidal activity | very good herbicidal activity
CC(F)c1nc(N)nc(NC2CCN(c3ccccc3)C2=O)n1 (stereo not shown) [Example A11] | very good herbicidal activity | very good herbicidal activity
CC(F)c1nc(N)nc(NC2CCN(c3cccc(C(F)(F)F)c3)C2=O)n1 (stereo not shown) [Example A12] | very good herbicidal activity | very good herbicidal activity
Cc1cccc(N2CCC(Nc3nc(N)nc(C(C)F)n3)C2=O)c1 (stereo not shown) [Example A13] | very good herbicidal activity | very good herbicidal activity
Cc1cc(C)cc(N2CCC(Nc3nc(N)nc(C(C)F)n3)C2=O)c1 (stereo not shown) [Example A14] | very good herbicidal activity | very good herbicidal activity
Cc1cc(N2CCC(Nc3nc(N)nc(C(C)F)n3)C2=O)ccc1F (stereo not shown) [Example A15] | very good herbicidal activity | very good herbicidal activity
COc1cccc(N2CCC(Nc3nc(N)nc(C(C)F)n3)C2=O)c1 (stereo not shown) [Example A16] | very good herbicidal activity | very good herbicidal activity
CC(F)c1nc(N)nc(NC2CCN(c3cccc(OC(F)(F)F)c3)C2=O)n1 (stereo not shown) [Example A17] | very good herbicidal activity | very good herbicidal activity
CC(F)c1nc(N)nc(NC2CCN(c3cccc(Cl)c3)C2=O)n1 (stereo not shown) [Example A18] | very good herbicidal activity | very good herbicidal activity
CC(C)c1nc(N)nc(NC2CCN(c3cccc(F)c3)C2=O)n1 (stereo not shown) [Example A19] | very good herbicidal activity | very good herbicidal activity
CC(C)c1nc(N)nc(NC2CCN(c3cccc(C(F)(F)F)c3)C2=O)n1 (stereo not shown) [Example A21] | very good herbicidal activity | very good herbicidal activity
